Experimental data reported in US8957078B2, “Compounds useful as inhibitors of ATR kinase” (Vertex Pharmaceuticals Incorporated, priority 2013, dated 2015).

Legend:
[1] = biological target: T1, ATR kinase (full-length ATR) (Homo sapiens, UniProt Q13535); experiment: ATR Inhibition Assay (radioactive-phosphate incorporation); type: biochemical; settings: Ki(app); 5 nM full-length ATR, 10 μM ATP, 800 μM target peptide, 25° C.
T1 construct: in the presence of 5 nM full-length ATR
Method: Compounds were screened for their ability to inhibit ATR kinase using a radioactive-phosphate incorporation assay. Assays were carried out in a mixture of 50 mM Tris/HCl (pH 7.5), 10 mM MgCl2 and 1 mM DTT. Final substrate concentrations were 10 μM [γ-33P]ATP (3 mCi 33P ATP/mmol ATP, Perkin Elmer) and 800 μM target peptide (ASELPASQPQPFSAKKK (SEQ. ID NO: 1)).
Assays were carried out at 25° C. in the presence of 5 nM full-length ATR. An assay stock buffer solution was prepared containing all of the reagents listed above, with the exception of ATP and the test compound of interest. 13.5 μL of the stock solution was placed in a 96 well plate followed by addition of 2 μL of DMSO stock containing serial dilutions of the test compound (typically starting from a final concentration of 15 μM with 3-fold serial dilutions) in duplicate (final DMSO concentration 7%). The plate was pre-incubated for 10 minutes at 25° C. and the reaction initiated by addition of 15 μL [γ-33P]ATP (final concentration 10 μM).
The reaction was stopped after […] by the addition of 30 μL 0.1M phosphoric acid containing 2 mM ATP. A multiscreen phosphocellulose filter 96-well plate (Millipore, Cat no. MAPHN0B50) was pretreated with 100 μL 0.2M phosphoric acid prior to the addition of 45 μL of the stopped assay mixture. The plate was washed with 5×200 μL 0.2M phosphoric acid. After drying, 100 μL Optiphase ‘SuperMix’ liquid scintillation cocktail (Perkin Elmer) was added to the well prior to scintillation counting (1450 Microbeta Liquid Scintillation Counter, Wallac).
After removing mean background values for all of the data points, Ki(app) data were calculated from non-linear regression analysis of the initial rate data using the Prism software package (GraphPad Prism version 3.0cx for Macintosh, GraphPad Software, San Diego Calif., USA).

[2] = system: HCT116 colorectal cancer cells; experiment: Cisplatin Sensitization Assay (96 h cell viability MTS); type: cell-based; settings: concentration of compound required to reduce the IC50 of Cisplatin alone by at least 3-fold; HCT116, 96 h MTS
Method: Compounds can be screened for their ability to sensitize HCT116 colorectal cancer cells to Cisplatin using a 96 h cell viability (MTS) assay. […] Compounds and Cisplatin are then both added simultaneously to the cell media in 2-fold serial dilutions from a top final concentration of 10 μM as a full matrix of concentrations in a final cell volume of 200 μl, and the cells are then incubated at 37° C. in 5% CO2. After 96 h, 40 μl of MTS reagent (Promega G358a) is added to each well and the cells are incubated for 1 h at 37° C. in 5% CO2. Finally, absorbance is measured at 490 nm using a SpectraMax Plus 384 reader (Molecular Devices) and the concentration of compound required to reduce the IC50 of Cisplatin alone by at least 3-fold (to 1 decimal place) can be reported.

T1 sequence (Q13535 whole entry): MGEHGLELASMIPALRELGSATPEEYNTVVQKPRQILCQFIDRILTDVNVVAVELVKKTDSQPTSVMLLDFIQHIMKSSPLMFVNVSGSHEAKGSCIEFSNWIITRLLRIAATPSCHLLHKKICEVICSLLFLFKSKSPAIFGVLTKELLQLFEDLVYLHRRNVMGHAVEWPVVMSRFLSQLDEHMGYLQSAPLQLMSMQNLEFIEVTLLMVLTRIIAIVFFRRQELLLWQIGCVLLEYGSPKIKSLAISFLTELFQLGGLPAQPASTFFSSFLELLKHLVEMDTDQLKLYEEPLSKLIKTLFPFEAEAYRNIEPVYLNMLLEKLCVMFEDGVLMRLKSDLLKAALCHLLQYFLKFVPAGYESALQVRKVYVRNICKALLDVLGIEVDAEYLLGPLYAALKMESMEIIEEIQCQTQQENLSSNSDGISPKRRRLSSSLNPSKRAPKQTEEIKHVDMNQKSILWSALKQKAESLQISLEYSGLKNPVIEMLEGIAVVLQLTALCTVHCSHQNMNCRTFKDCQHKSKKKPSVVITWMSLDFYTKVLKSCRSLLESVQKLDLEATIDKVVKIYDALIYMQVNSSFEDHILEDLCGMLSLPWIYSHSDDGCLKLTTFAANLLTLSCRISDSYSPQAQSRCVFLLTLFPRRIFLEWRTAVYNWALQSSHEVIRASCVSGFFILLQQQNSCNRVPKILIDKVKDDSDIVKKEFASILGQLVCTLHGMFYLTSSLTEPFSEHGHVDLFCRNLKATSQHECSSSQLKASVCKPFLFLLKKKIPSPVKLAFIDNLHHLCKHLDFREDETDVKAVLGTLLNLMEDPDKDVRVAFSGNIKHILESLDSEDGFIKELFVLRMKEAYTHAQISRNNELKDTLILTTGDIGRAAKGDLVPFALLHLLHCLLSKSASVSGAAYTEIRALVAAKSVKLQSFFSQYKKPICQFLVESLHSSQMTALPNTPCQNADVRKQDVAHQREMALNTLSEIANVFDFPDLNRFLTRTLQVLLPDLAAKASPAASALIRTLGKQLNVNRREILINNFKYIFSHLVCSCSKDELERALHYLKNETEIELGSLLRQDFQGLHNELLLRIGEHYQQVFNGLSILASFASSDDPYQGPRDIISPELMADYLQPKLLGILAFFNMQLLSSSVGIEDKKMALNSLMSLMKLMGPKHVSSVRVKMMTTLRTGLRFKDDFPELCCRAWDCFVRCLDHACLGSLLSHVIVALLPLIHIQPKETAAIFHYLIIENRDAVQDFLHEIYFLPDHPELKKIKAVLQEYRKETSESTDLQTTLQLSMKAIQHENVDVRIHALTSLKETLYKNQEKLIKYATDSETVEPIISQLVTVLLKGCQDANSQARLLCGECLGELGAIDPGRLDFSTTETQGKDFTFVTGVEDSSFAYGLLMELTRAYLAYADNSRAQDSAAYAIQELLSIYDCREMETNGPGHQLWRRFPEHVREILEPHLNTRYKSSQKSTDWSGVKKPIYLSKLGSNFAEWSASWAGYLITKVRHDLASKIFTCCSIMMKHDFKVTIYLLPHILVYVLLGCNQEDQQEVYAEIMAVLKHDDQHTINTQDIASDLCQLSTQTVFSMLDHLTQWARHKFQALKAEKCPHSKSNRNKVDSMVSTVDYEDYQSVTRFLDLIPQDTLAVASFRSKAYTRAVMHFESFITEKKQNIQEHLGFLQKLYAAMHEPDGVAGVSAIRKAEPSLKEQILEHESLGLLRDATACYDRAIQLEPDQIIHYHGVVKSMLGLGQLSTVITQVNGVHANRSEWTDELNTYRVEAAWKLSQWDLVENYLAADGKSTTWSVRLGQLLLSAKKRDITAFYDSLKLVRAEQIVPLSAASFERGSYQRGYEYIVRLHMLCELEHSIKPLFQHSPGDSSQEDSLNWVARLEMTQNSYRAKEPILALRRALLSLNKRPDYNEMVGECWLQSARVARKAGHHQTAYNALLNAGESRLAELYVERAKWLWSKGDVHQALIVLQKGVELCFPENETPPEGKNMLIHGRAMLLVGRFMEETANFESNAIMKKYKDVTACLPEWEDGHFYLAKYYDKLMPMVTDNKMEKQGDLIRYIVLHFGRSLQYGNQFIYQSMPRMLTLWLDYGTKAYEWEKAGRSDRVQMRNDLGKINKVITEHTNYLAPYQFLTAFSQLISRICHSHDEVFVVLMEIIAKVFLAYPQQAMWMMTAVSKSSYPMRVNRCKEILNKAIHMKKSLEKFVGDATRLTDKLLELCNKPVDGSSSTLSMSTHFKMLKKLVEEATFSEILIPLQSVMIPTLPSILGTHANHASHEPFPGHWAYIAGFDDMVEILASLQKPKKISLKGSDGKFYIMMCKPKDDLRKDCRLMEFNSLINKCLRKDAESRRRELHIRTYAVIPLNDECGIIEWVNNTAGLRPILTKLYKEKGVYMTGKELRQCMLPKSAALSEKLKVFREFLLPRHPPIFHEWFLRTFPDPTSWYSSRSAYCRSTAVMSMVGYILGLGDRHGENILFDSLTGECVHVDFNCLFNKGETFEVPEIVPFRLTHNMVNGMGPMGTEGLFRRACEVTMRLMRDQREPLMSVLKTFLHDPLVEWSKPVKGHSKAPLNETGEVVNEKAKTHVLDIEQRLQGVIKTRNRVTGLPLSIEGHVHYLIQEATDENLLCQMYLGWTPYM

| Compound | Ki [1] [µM] | Cisplatin Sensitization Assay [2] |
| --- | --- | --- |
| CN1CCC[C@@H](Oc2ncncc2NC(=O)c2c(N)nn3cc(F)cnc23)C1 [I-A-1, (R)-2-amino-6-fluoro-N-(4-((1-methylpiperidin-3-yl)oxy)pyrimidin-5-yl)pyrazolo[1,5-a]pyrimidine-3-carboxamide] | 1 to 5 | + (Compounds with a Cisplatin sensitization value >0.2 μM but <5 μM are marked with “+.”) |
| CN1CCC[C@H](Oc2ncncc2NC(=O)c2c(N)nn3cc(F)cnc23)C1 [I-A-2, (S)-2-amino-6-fluoro-N-(4-((1-methylpiperidin-3-yl)oxy)pyrimidin-5-yl)pyrazolo[1,5-a]pyrimidine-3-carboxamide] | 0.01 to 1 | + (Compounds with a Cisplatin sensitization value >0.2 μM but <5 μM are marked with “+.”) |
| Nc1nn2cc(F)cnc2c1C(=O)Nc1cncnc1O[C@H]1CN2CCC1CC2 [I-A-3, (R)-2-amino-6-fluoro-N-(4-(quinuclidin-3-yloxy)pyrimidin-5-yl)pyrazolo[1,5-a]pyrimidine-3-carboxamide] | 0.01 to 1 | ++ (Compounds with a Cisplatin sensitization value >0.02 μM but <0.2 μM are marked with “++.”) |
| Nc1nn2cc(F)cnc2c1C(=O)Nc1cncnc1O[C@@H]1CN2CCC1CC2 [I-A-4, (S)-2-amino-6-fluoro-N-(4-(quinuclidin-3-yloxy)pyrimidin-5-yl)pyrazolo[1,5-a]pyrimidine-3-carboxamide] | 0.01 to 1 | ++ (Compounds with a Cisplatin sensitization value >0.02 μM but <0.2 μM are marked with “++.”) |
| CN1CCC(Oc2ncncc2NC(=O)c2c(N)nn3cc(F)cnc23)CC1 [I-A-5, 2-amino-6-fluoro-N-(4-((1-methylpiperidin-4-yl)oxy)pyrimidin-5-yl)pyrazolo[1,5-a]pyrimidine-3-carboxamide] | 0.01 to 1 | ++ (Compounds with a Cisplatin sensitization value >0.02 μM but <0.2 μM are marked with “++.”) |
| CN1CCC(Oc2ncncc2NC(=O)c2c(N)nn3cc(Cl)cnc23)CC1 [I-A-6, 2-amino-6-chloro-N-(4-((1-methylpiperidin-4-yl)oxy)pyrimidin-5-yl)pyrazolo[1,5-a]pyrimidine-3-carboxamide] | 1 to 5 | ++ (Compounds with a Cisplatin sensitization value >0.02 μM but <0.2 μM are marked with “++.”) |
| Nc1nn2cc(F)cnc2c1C(=O)Nc1cncnc1OC1CCN(C2COC2)CC1 [I-A-8, 2-amino-6-fluoro-N-(4-((1-(oxetan-3-yl)piperidin-4-yl)oxy)pyrimidin-5-yl)pyrazolo[1,5-a]pyrimidine-3-carboxamide] | 0.01 to 1 | +++ (Compounds with a Cisplatin sensitization value of <0.02 μM are marked with “+++.”) |
| Nc1nn2cc(Cl)cnc2c1C(=O)Nc1cncnc1OC1CCN(C2COC2)CC1 [I-A-9, 2-amino-6-chloro-N-(4-((1-(oxetan-3-yl)piperidin-4-yl)oxy)pyrimidin-5-yl)pyrazolo[1,5-a]pyrimidine-3-carboxamide] | 1 to 5 | + (Compounds with a Cisplatin sensitization value >0.2 μM but <5 μM are marked with “+.”) |
| CN1CC[C@@H](Oc2ncncc2NC(=O)c2c(N)nn3cc(F)cnc23)C1 [I-A-10, (R)-2-amino-6-fluoro-N-(4-((1-methylpyrrolidin-3-yl)oxy)pyrimidin-5-yl)pyrazolo[1,5-a]pyrimidine-3-carboxamide] | 0.01 to 1 | + (Compounds with a Cisplatin sensitization value >0.2 μM but <5 μM are marked with “+.”) |
| CN1CC[C@H](Oc2ncncc2NC(=O)c2c(N)nn3cc(F)cnc23)C1 [I-A-11, (S)-2-amino-6-fluoro-N-(4-((1-methylpyrrolidin-3-yl)oxy)pyrimidin-5-yl)pyrazolo[1,5-a]pyrimidine-3-carboxamide] | 1 to 5 | ++ (Compounds with a Cisplatin sensitization value >0.02 μM but <0.2 μM are marked with “++.”) |
| CN(C)[C@H]1CC[C@H](Oc2ncncc2NC(=O)c2c(N)nn3cc(F)cnc23)CC1 [I-A-12, 2-amino-N-(4-(((1r,4r)-4-(dimethylamino)cyclohexyl)oxy)pyrimidin-5-yl)-6-fluoropyrazolo[1,5-a]pyrimidine-3-carboxamide] | 0.01 to 1 | ++ (Compounds with a Cisplatin sensitization value >0.02 μM but <0.2 μM are marked with “++.”) |
| CN(C)[C@H]1CC[C@H](Oc2ncncc2NC(=O)c2c(N)nn3ccc(C(F)(F)F)nc23)CC1 [I-A-13, 2-amino-N-(4-(((1r,4r)-4-(dimethylamino)cyclohexyl)oxy)pyrimidin-5-yl)-5-(trifluoromethyl)pyrazolo[1,5-a]pyrimidine-3-carboxamide] | 0.01 to 1 | ++ (Compounds with a Cisplatin sensitization value >0.02 μM but <0.2 μM are marked with “++.”) |
| CC(C)Oc1ncncc1NC(=O)c1c(N)nn2cc(F)cnc12 [I-A-14, 2-amino-6-fluoro-N-(4-isopropoxypyrimidin-5-yl)pyrazolo[1,5-a]pyrimidine-3-carboxamide] | 0.01 to 1 | ++ (Compounds with a Cisplatin sensitization value >0.02 μM but <0.2 μM are marked with “++.”) |
| CC(C)Oc1ncncc1NC(=O)c1c(N)nn2ccc(OCCN(C)C)nc12 [I-A-15, 2-amino-5-(2-(dimethylamino)ethoxy)-N-(4-isopropoxypyrimidin-5-yl)pyrazolo[1,5-a]pyrimidine-3-carboxamide] | 1 to 5 | + (Compounds with a Cisplatin sensitization value >0.2 μM but <5 μM are marked with “+.”) |
| COc1ncncc1NC(=O)c1c(N)nn2ccc(OCCN(C)C)nc12 [I-A-16, 2-amino-5-(2-(dimethylamino)ethoxy)-N-(4-methoxypyrimidin-5-yl)pyrazolo[1,5-a]pyrimidine-3-carboxamide] | 1 to 5 | + (Compounds with a Cisplatin sensitization value >0.2 μM but <5 μM are marked with “+.”) |
| COc1ncncc1NC(=O)c1c(N)nn2cc(CC#N)cnc12 [I-A-17, 2-amino-6-(cyanomethyl)-N-(4-methoxypyrimidin-5-yl)pyrazolo[1,5-a]pyrimidine-3-carboxamide] | 0.01 to 1 | ++ (Compounds with a Cisplatin sensitization value >0.02 μM but <0.2 μM are marked with “++.”) |
| Nc1nn2cc(F)cnc2c1C(=O)Nc1cncnc1O[C@H]1C[C@]2(CCN2)C1 [I-A-18, N-(4-((4s,6r)-1-azaspiro[3.3]heptan-6-yloxy)pyrimidin-5-yl)-2-amino-6-fluoropyrazolo[1,5-a]pyrimidine-3-carboxamide] | 1 to 5 | + (Compounds with a Cisplatin sensitization value >0.2 μM but <5 μM are marked with “+.”) |
| Nc1nn2cc(F)cnc2c1C(=O)Nc1cnncc1N1CCCC1 [I-B-16, 2-amino-6-fluoro-N-(5-(pyrrolidin-1-yl)pyridazin-4-yl)pyrazolo[1,5-a]pyrimidine-3-carboxamide] | 1 to 5 |  |
| CN1CCN(C2CCN(c3cnncc3NC(=O)c3c(N)nn4cc(F)cnc34)CC2)CC1 [I-B-24, 2-amino-6-fluoro-N-(5-(4-(4-methylpiperazin-1-yl)piperidin-1-yl)pyridazin-4-yl)pyrazolo[1,5-a]pyrimidine-3-carboxamide] | 0.01 to 1 |  |
| COc1cnccc1NC(=O)c1c(N)nn2ccc(C(F)(F)F)nc12 [I-C-4, 2-amino-N-(3-methoxypyridin-4-yl)-5-(trifluoromethyl)pyrazolo[1,5-a]pyrimidine-3-carboxamide] | 0.01 to 1 |  |
